# Legend:
# Test in all cases: MIC of compounds alone and combined with antibacterials, broth microdilution (CLSI)
# Assay type in all cases: cell-based
# [1] = tested on: Citrobacter koseri (CKR) isolates; conditions: AF1 @ 4 μg/mL
# Summary of the method: (§1)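 Log-phase isolates at final 5·10^5 CFU/mL in cation-adjusted Mueller-Hinton broth, incubated 16-20 h at 35° C in ambient air. MIC read visually as lowest concentration preventing growth, for compound alone and for antibacterial at each compound concentration.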
# [2] = tested on: Enterobacter aerogenes (EAE) isolates; conditions: AF1 @ 4 μg/mL
# Summary of the method: as §1
# [3] = tested on: Klebsiella oxytoca (KOX) isolates; conditions: AF1 @ 4 μg/mL
# Summary of the method: as §1
# [4] = tested on: Morganella morganii (MMO) isolates; conditions: AF1 @ 4 μg/mL
# Summary of the method: as §1
# [5] = tested on: Providencia rettgeri (PRE) isolates
# Summary of the method: as §1
# [6] = tested on: Providencia stuartii (PST) isolates; conditions: AF1 @ 4 μg/mL
# Summary of the method: as §1
# [7] = tested on: Serratia marcescens (SMA) isolates
# Summary of the method: as §1
compound,measurement,setting,value
"COCC1=C(C(=O)O)N2C(=O)[C@@H](NC(=O)/C(=N\OC)c3csc(N)n3)[C@H]2SC1 [POD, Cefpodoxime]",MIC ATB in combination,[1]; CKO ROU,2 µg/mL
same,MIC ATB in combination,[1]; CKO UFR149,8 µg/mL
same,MIC ATB in combination,[1]; CKO UFR150,8 µg/mL
same,MIC ATB in combination,[2]; EAE 49469,8 µg/mL
same,MIC ATB in combination,[2]; EAE 200261,4 µg/mL
same,MIC ATB in combination,[2]; EAE UFR199,1 µg/mL
same,MIC ATB in combination,[2]; EAE UFR201,<=0.25 μg/mL
same,MIC ATB in combination,[2]; EAE UFR202,2 µg/mL
same,MIC ATB in combination,[2]; EAE UFR213,1 µg/mL
same,MIC ATB in combination,[3]; KOX UFR21,1 µg/mL
same,MIC ATB in combination,[3]; KOX UFR173,0.5 µg/mL
same,MIC ATB in combination,[3]; KOX UFR223,<=0.25 μg/mL
same,MIC ATB in combination,[3]; KOX UFR224,<=0.25 μg/mL
same,MIC ATB in combination,[4]; MMO 200321,2 µg/mL
same,MIC ATB in combination,[4]; MMO UFR144,2 µg/mL
same,MIC ATB in combination,[4]; MMO UFR240,<=0.25 μg/mL
same,MIC ATB in combination,[4]; MMO UFR241,2 µg/mL
same,MIC ATB in combination,[4]; MMO UFR242,4 µg/mL
same,MIC ATB in combination,[4]; MMO UFR243,4 µg/mL
same,MIC ATB in combination,[4]; MMO UFR244,<=0.25 μg/mL
same,MIC ATB in combination,[4]; MMO UFR245,2 µg/mL
same,MIC ATB in combination,[4]; MMO UFR246,4 µg/mL
same,MIC ATB in combination,[4]; MMO UFR247,1 µg/mL
same,MIC ATB in combination,"[5]; PRE UFR99, AF1 @ 4 μg/mL",>128 µg/mL
same,MIC ATB in combination,"[5]; strain PRE UFR236, antibacterial combined with AF1 @ 4 μg/mL",1 µg/mL
same,MIC ATB in combination,[6]; PST UFR94,0.5 µg/mL
same,MIC ATB in combination,[6]; PST UFR95,2 µg/mL
same,MIC ATB in combination,[6]; PST UFR235,2 µg/mL
same,MIC ATB in combination,"[7]; SMA UFR30, AF1 @ 4 μg/mL",0.5 µg/mL
same,MIC ATB in combination,"[7]; SMA UFR134, AF1 @ 4 μg/mL",2 µg/mL
same,MIC ATB in combination,"[7]; SMA UFR135, AF1 @ 4 μg/mL",4 µg/mL
same,MIC ATB in combination,"[7]; SMA UFR136, AF1 @ 4 μg/mL",8 µg/mL
same,MIC ATB in combination,"[7]; SMA UFR137, AF1 @ 4 μg/mL",0.5 µg/mL
same,MIC ATB in combination,"[7]; SMA UFR138, AF1 @ 4 μg/mL",0.5 µg/mL
same,MIC ATB in combination,"[7]; SMA UFR139, AF1 @ 4 μg/mL",2 µg/mL
same,MIC ATB in combination,"[7]; SMA UFR141, AF1 @ 4 μg/mL",2 µg/mL
same,MIC ATB in combination,"[7]; SMA UFR142, AF1 @ 4 μg/mL",1 µg/mL
same,MIC ATB in combination,"[7]; SMA UFR143, AF1 @ 4 μg/mL",1 µg/mL
same,MIC ATB in combination,"[7]; SMA UFR239, AF1 @ 4 μg/mL",2 µg/mL
same,MIC ATB in combination,"[7]; strain SMA UFR238, antibacterial combined with AF1 @ 4 μg/mL",2 µg/mL
